The values that follow are results of earlier work, collected in patent US20110189283A1, “APPETISING MEDICAMENTS FOR ORAL ADMINISTRATION IN SOLID FORM FOR PREVENTION AND/OR TREATMENT OF CARDIAC INSUFFICIENCY IN ANIMALS” (VIRBAC, priority 2008, published 2011).

For data set [1] the following is noted: administered during or shortly after feeding.
The test system of data set [2] is phosphodiesterase type III. Particulars: after oral administration.

Regarding `COc1ccc(-c2nc3ccc(C4=NNC(=O)CC4C)cc3[nH]2)cc1` (stereo not drawn) [pimobendan, 4,5-dihydro-6-[2-(4-methoxyphenyl)-1H-benzimidazol-5-yl]-5-methyl-3(2H)-pyridazinone], the “effect of feeding on bioavailability” value in data set [1] is on record as “considerably reduced”. Moreover, the “duration of positive inotropic effects” value in data set [2] is 8 h.

As for `CC(=O)S[C@@H]1CC2=CC(=O)CC[C@]2(C)[C@H]2CC[C@@]3(C)[C@@H](CC[C@@]34CCC(=O)O4)[C@H]12` [spironolactone], under “dogs”, the “dose administered found in the feces” value is 70% and the “dose administered found in the urine” value is reported as 20%. The “time to state of equilibrium” value (multiple oral administrations) is 2 days. Besides, the accumulation result (multiple oral administrations of 2 mg per kg for 10 consecutive days) is given as “no accumulation is observed”. Moreover, where the note is “oral”, the “effect of simultaneous taking of foods on bioavailability” value was “considerably increases”. Moreover, the “absorption versus amount administered” value (oral administration of 2 to 4 mg/kg) was “increases linearly”. Also, the “metabolism by the liver” value (to 7α-thiomethylspironolactone and canrenone, dogs) was “rapidly and completely metabolized”.
